These are literature values, as cited in US20060074053A1, “Ophthalmic solution containing quinolone antimicrobial compound” (SANTEN PHARMACEUTICAL CO., LTD., priority 2003, published 2006).

The conditions of the data set: after instillation of ciprofloxacin-containing ophthalmic solution; Am. J. Ophthalmol., 117, pp 258-259 (1994).

In the case of `O=C(O)c1cn(C2CC2)c2cc(N3CCNCC3)c(F)cc2c1=O` [ciprofloxacin], the “precipitate on the surface of the eyes after instillation” value was “liberated as a precipitate on the surface of the eyes (corneal epithelium)”.
